Test results: patent US9056111B1, “Selective efflux inhibitors and related pharmaceutical compositions and methods of treatment” (STC.UNM, priority 2011, dated 2015)
pEC50, pIC50: −log10 of the molar value. Converted amounts (≈) assume the structure as drawn. Read-outs that look alike come from different tables or passages of the source.

Key:
[1] = Aqueous solubility in PBS; format: physicochemical; conditions: phosphate buffered saline (PBS), aqueous buffer; PBS pH 7.4, room temperature (23° C.)
Protocol: PBS by definition is 137 mMNaCl, 2.7 mMKCl, 10 mM sodium phosphate dibasic, 2 mM potassium phosphate monobasic and a pH of 7.4.

[2] = Flow cytometric kinetic solubility; format: physicochemical; conditions: kinetic from dmso stock
Source text: Applying a flow cytometrickinetic solubility protocol,^65 we were also able to compare solubility across primary, secondary, and profiling buffer conditions in house. […] This is approximately three fold higher than reported above; however, our protocol uses 1% DMSO as compared to 0.1%. […] The presence of fetal bovine serum also affects compound availability and in the primary assay screening buffer (6.7% FBS in PBS, 1% DSMO) the precipitation was inhibited slightly with no particulate noted at 3 μg/mL. […] In general, we are confident that compound availability is sufficient for the concentration ranges discussed for this scaffold set in our described biological systems.

[3] = system: ABCG2 over-expressing Ig-MXP3 cells; assay: Chemoreversal assay: potentiation of mitoxantrone (MTX) killing; format: cell-based
Ig-MXP3 cells = assay: Direct cytotoxicity (Toxic Dose 50) without chemotherapeutic; format: cell-based; conditions: Ig-MXP3 cells, inhibitor without chemotherapeutic
ABCB1 = ABCB1 (Homo sapiens, UniProt P08183); assay: JC-1 efflux inhibition dose response, flow cytometry, Jurkat-DNR cells
ABCB1, sequence (P08183 whole entry): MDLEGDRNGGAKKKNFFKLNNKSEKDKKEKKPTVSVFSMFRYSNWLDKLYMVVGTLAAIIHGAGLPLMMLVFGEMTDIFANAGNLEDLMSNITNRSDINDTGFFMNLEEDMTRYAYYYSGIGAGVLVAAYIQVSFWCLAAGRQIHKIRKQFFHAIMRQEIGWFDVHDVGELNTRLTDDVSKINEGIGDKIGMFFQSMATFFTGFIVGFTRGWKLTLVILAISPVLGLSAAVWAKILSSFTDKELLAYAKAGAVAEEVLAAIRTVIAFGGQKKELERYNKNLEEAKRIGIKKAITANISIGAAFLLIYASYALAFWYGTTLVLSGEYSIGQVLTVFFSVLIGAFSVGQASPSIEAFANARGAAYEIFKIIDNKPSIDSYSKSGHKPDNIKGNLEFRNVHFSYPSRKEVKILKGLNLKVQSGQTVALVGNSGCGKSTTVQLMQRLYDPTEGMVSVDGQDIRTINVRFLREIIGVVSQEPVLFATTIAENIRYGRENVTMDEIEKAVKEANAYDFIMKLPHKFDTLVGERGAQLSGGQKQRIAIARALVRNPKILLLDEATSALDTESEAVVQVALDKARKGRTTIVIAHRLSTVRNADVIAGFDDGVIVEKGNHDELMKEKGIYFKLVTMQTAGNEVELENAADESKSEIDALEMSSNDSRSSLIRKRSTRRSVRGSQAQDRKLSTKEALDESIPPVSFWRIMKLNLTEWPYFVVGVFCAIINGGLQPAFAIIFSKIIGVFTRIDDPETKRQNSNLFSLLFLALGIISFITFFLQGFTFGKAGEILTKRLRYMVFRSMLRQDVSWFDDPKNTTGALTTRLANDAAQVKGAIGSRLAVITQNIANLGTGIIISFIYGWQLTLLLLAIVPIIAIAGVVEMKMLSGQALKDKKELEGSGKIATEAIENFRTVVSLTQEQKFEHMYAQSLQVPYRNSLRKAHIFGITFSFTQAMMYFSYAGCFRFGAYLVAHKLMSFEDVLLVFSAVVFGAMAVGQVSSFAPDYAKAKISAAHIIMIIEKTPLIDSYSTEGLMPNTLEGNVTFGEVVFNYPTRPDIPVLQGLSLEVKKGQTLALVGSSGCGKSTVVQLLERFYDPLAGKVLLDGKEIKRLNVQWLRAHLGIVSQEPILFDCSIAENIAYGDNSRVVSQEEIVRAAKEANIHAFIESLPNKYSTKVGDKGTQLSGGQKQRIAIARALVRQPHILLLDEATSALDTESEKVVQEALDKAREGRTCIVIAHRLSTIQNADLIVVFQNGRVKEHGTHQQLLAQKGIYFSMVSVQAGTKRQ
Summary of the method: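 Jurkat-DNR cells pre-stained with 1 μM JC-1 were incubated with compound (final 50 μM to 69 nM, […]) at 1×10^6 cells/mL, rotated 30 min at 25° C. Retained JC-1 read by flow cytometry (488 nm excitation, 530/40 nm emission). Curves fitted to a four-parameter logistic.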

[4] = Aqueous stability in PBS at room temperature; format: physicochemical
Protocol: Aqueous stability was measured at room temperature (23° C.) in PBS (no antioxidants or other protectants and DMSO concentration below 0.1%). The stability of SID 88095709, determined as the percent of compound remaining after 48 hours, was 10%.^64Stability data are depicted as a graph showing the loss of compound with time over a 48 hour period with a minimum of 6 time points and provide the percent remaining compound at end of the 48 hours (FIG. 3, closed circles).
The stability data under these conditions overlain in the FIG. 3 and is also depicted as a graph showing the loss of compound with time over a 48 hour period with a minimum of 6 time points and provide the percent remaining compound at end of the 48 hours (FIG. 3, closed triangles). The addition of acetonitrile appears to have solubilized the compound and provided a more accurate reading of the stability, which is now 100% remaining after 48 hours.

Jurkat-DNR cells = assay: Direct cytotoxicity (Toxic Dose 50) without chemotherapeutic; conditions: Jurkat-DNR cells, inhibitor without chemotherapeutic
Protocol: Cells (ABCB1, Jurkat-DNR or ABCG2 Ig-MXP3) are incubated with the test compound (3 order of magnitude concentration range) over a 3-day and 7-day period in the presence of the inhibitor and chemotherapeutic (ABCB1, DNR or ABCG2 MTX), such that a cell concentration of at least 1×10^5 cells/mL is maintained. Cell viability is determined by trypan blue staining and enumeration under light microscopy. […] A chemoreversal index (Chemoreversal 50, CR50) is determined from the viability assessment. Using a similar approach, a direct cytotoxicity index (Toxic Dose 50, TD50) is determined by assessment of cell death of cells grown in media alone.
Cells (ABCB1, Jurkat-DNR or ABCG2 Ig-MXP3) were incubated with the test compound in a 3 order of magnitude concentration range over three and seven day periods in the presence of the inhibitor and chemotherapeutic (ABCB1, 100 nM DNR or ABCG2 30 nM MTX), such that a cell concentration of at least 1×10^5 cells mL^−1 was maintained. Cell viability was determined by trypan blue staining and enumeration under light microscopy. […] A chemoreversal index (Chemoreversal 50, CR50) was determined from the viability assessment. Using a similar approach, a direct cytotoxicity index (Toxic Dose 50, TD50) was determined by assessment of cell death of cells grown in media alone.

## O=C(c1ccoc1)N1CCN(c2cc(-c3ccco3)nc3cc(-c4ccccc4)nn23)CC1 [Compound 1, (4-(5-(furan-2-yl)-2-phenylpyrazolo[1,5-a]pyrimidin-7-yl)piperazin-1-yl)(furan-3-yl)methanone]
[1]
  solubility: 0.51 µg/mL (≈ 1.16 µM)
[2]; PBS with 1% DMSO, pH 7.4, aqueous buffer, PBS alone, 1% DMSO, read-out: kinetic solubility
  solubility kinetic: 2 µg/mL (≈ 4.55 µM)
[2]; growth media (RPMI with 10% FBS, 1% DMSO), plasma or biological fluid, read-out: kinetic solubility, no precipitate forming at
  solubility kinetic: ≥ 6 µg/mL
[2]; primary assay screening buffer (6.7% FBS in PBS, 1% DMSO), plasma or biological fluid, read-out: kinetic solubility, no particulate noted at
  solubility kinetic: ≥ 3 µg/mL
[3]; ABCG2 vs ABCB1
  selectivity in chemoreversal (cell killing assay): 1.8 fold
[3]; Ig-MXP3 cells, constant 30 nM MTX, varied inhibitor dose, read-out: CR50 ABCG2
  pEC50: 6.51
Ig-MXP3 cells
  TD50 ABCG2: 18.30 µM
Ig-MXP3 cells; listed as SID 88095709
  TD50 ABCG2: 18.3 µM
ABCB1
  pEC50: 5.33
ABCB1; IC50 ABCB1 (efflux inhibition of JC-1 substrate), Jurkat-DNR cells over-expressing ABCB1, averages of two to four replicates
  pIC50: 5.33
[4]; PBS alone, 23° C., DMSO below 0.1%
  Aqueous stability, percent of compound remaining after 48 hours: 10%
[4]; PBS with acetonitrile (50% v/v final)
  Aqueous stability, percent remaining after 48 hours: 100%
Jurkat-DNR cells
  TD50 ABCB1: 5.52 µM
Jurkat-DNR cells; listed as SID 88095709
  TD50 ABCB1: 5.5 µM
